What was measured:
testosterone levels = assay: 1-Day Cyno PK/PD Study; assay type: in vivo; details: cynomolgus monkeys; single oral dose of 5 mg/Kg in 80% PEG-400/water; blood samples over a 24 hour period (FIG. 1)
Protocol: 1-Day Cyno PK/PD Study Protocol
Animals: All procedures involving animals and their care were conducted in conformity with the guidelines that are in compliance with the Bristol-Myers Squibb Institutional Animal Care and Use Committee. Fully mature male cynomolgus monkeys (>4 yrs of age; 5-6 kg) were from an in-house colony. All the monkeys used had chronically implanted femoral vein access ports. For oral studies, all animals were fasted overnight prior to dosing and were fed 4 hr after dosing. All animals had free access to water and were conscious throughout the study.
Drug: For all oral pharmacokinetic studies in cynomolgus monkeys, the tested compound was formulated in polyethylene glycol (PEG 400): water (80:20, v:v) at concentrations of 1-5 mg/mL. […]
Sampling: Blood samples were collected from the femoral port, at 15, 30, and 45 min, and 1, 2, 4, 6, 8, 12, 24, 30, and 48 hr after oral administration. […] The plasma fraction was immediately separated by centrifugation (14,000 rpm, 10 min, 4° C.), frozen on dry ice, and stored at −20° C. until the samples were analyzed.
Analysis of Tested Compound: Plasma samples were thawed and treated with two volumes of acetonitrile containing internal standard. After centrifugation to remove precipitated proteins, an aliquot of supernatant was analyzed by LC/MS/MS. […]

Human CYP17 = Human CYP17 (Homo sapiens (Human), UniProt P05093); assay: CYP17 Total SPA Assay; assay type: biochemical; details: microsomes from HEK2 cells stably transfected with CYP17; 3H-Pregnenolone 1 uM; NADPH 2 mM; 45 minutes at room temperature
Chain of Human CYP17 (P05093 whole entry): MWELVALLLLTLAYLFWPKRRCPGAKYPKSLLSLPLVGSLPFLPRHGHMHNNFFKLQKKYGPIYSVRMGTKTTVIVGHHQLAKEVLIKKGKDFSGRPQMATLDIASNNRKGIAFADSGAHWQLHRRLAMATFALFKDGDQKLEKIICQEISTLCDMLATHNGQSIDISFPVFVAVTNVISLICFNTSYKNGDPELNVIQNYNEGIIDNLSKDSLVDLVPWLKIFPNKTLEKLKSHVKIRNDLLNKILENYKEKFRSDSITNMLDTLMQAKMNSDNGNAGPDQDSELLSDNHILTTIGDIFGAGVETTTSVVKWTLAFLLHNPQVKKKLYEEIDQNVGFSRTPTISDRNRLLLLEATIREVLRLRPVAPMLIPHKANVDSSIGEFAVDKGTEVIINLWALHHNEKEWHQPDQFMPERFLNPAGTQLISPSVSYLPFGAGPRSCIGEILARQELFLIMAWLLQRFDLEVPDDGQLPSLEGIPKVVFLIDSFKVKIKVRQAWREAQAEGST
Protocol: CYP17 Total SPA Assay The assays were performed in U-bottom 384-well optiplates. […] The reaction was initiated by the combination of the microsomes and substrates in wells containing compound. The reaction was incubated at room temperature for 45 minutes and terminated by adding 7.5 μl of 0.2N HCl to each well. […] The plate was sealed and incubated overnight with shaking at 4° C. The beads were allowed to settle in the plate for 1 hour and the plate read on a TOPCOUNT® (Perkin-Elmer) plate reader. […] The final concentration of reagents in the assays are NADPH, 2 mM; 3H-Pregnenolone, 1 uM; microsomes, 1.25 ug/ml; […] Dose response curves were generated to determine the concentration required inhibiting 50% of enzyme activity (IC50). Compounds were dissolved at 10 mM in dimethylsulfoxide (DMSO) and evaluated at eleven concentrations, each in duplicate. IC50 values were derived by non-linear regression analysis. Table 22 below lists the IC50 values for the following Examples of this invention measured in the Total CYP17 SPA Assay hereinabove.

IC50 (Human CYP17): 2.5 nM
Structure (SMILES): COc1cc(NS(C)(=O)=O)ccc1-c1cnccc1C [Example 217, N-(3-methoxy-4-(4-methyl-3-pyridinyl)phenyl)methanesulfonamide]
testosterone levels (testosterone levels): reduced

From US8916553B2 (Bristol-Myers Squibb Company, priority 2010, dated 2014)
